Consider 15 compounds from patent publication US11999727B2 (Tango Therapeutics, Inc., priority 2020, dated 2024).

Test [1] addresses T1, PRMT5 (Homo sapiens, UniProt O14744).
T1 construct: purchased Viva (custom protein)
The test can be described thus: PRMT5 biochemical IC50 assay with MTA as cofactor. The following applies: PRMT5, MTA as cofactor; read-out: MTA IC50.

For test [2], the target named is T1, PRMT5. The test can be described thus: PRMT5 biochemical IC50 assay with no cofactor. The following applies: PRMT5, no cofactor. An excerpt: Table 1 indicates IC50 values (μM) against PRMT5 for exemplary compounds in the presence of SAM as cofactor, with no cofactor, and with MTA as cofactor, respectively (columns 4-6). […] Ki values can be calculated from the IC50 values as described in the Examples section. As detailed in the Examples section, for the assay performed in the presence of SAM, IC50=Ki×1.5 (Ki=IC50/1.5).

In test [3] the test system is HAP1 MTAP-deleted cell line. As to the kind of experiment: SDMA in-cell western assay, HAP1 MTAP-deleted. Format: cell-based. The note with it: for IC50: Homo sapiens, HAP1, SDMA in-cell western, HAP1 MTAP-deleted; for MTAP intact/deleted ratio: SDMA in-cell western. In outline: (§1)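 Isogenic HAP1 pair: the MTAP-intact line expresses endogenous MTAP, and the deleted line is MTAP-null. Symmetric dimethylarginine was detected by in-cell western and IC50 values derived for each line.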

Test [4] has as its system HAP1 MTAP-deleted cell line. The test can be described thus: Viability assay, MTAP-deleted cell line. Format: cell-based. The following applies: Homo sapiens, read-out: HAP1 MTAP deleted viability. From the text: Table 1 additionally indicates IC50 values in a viability assay for the MTAP-deleted cell line (column 10), indicating the effect of treatment with compound on cell survival.

In test [5] the target is T1, PRMT5. As to the kind of experiment: PRMT5 biochemical IC50 assay with SAM as cofactor. The following applies: PRMT5, SAM as cofactor; read-out: SAM IC50.
Test [6] deals with HAP1 MTAP-intact cell line. As to the kind of experiment: SDMA in-cell western assay, HAP1 MTAP-intact. The test is classed as cell-based. The following applies: Homo sapiens, HAP1, SDMA in-cell western, HAP1 MTAP-intact; read-out: MTAP HAP1 intact IC50. Put shortly: as §1
Where [7] appears, read: read-out: HAP 1 MTAP deleted IC50.
[8] abbreviates: IC50 ratio HAP1 MTAP-intact / HAP1 MTAP-deleted.
The mark [9] stands for this setting: HAP1, viability assay, MTAP-deleted cell line.
The mark [10] stands for this setting: read-out: HAP1 MTAP deleted IC50.
[11] abbreviates: IC50 ratio HAP1 MTAP-intact vs HAP1 MTAP-deleted.
Setting [12] is: read-out: No Cofactor/ rel IC50.
The mark [13] stands for this setting: HAP1, viability IC50, MTAP-deleted cell line.
Where [14] appears, read: HAP1, viability, HAP1 MTAP-deleted cell line.

The structures appear in SMILES notation.

T1 sequence (O14744 whole entry): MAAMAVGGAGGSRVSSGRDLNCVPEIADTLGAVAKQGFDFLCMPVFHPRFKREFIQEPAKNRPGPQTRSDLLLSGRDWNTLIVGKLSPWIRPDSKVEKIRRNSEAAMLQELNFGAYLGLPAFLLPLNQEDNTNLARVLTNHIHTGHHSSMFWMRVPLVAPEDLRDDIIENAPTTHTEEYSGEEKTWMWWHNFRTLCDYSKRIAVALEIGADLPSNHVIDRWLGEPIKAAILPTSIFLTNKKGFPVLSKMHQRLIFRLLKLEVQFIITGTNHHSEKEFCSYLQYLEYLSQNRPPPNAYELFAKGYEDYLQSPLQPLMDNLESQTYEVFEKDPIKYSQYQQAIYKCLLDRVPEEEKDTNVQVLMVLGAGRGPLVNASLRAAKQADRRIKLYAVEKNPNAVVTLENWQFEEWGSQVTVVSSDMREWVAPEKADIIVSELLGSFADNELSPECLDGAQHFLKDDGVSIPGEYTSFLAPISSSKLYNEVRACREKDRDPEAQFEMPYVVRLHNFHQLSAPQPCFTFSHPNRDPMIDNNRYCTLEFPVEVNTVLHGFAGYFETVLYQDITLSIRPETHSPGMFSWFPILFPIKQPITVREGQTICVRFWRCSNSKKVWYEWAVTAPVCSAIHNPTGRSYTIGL
T1 sequence (Q9BQA1 whole entry partner): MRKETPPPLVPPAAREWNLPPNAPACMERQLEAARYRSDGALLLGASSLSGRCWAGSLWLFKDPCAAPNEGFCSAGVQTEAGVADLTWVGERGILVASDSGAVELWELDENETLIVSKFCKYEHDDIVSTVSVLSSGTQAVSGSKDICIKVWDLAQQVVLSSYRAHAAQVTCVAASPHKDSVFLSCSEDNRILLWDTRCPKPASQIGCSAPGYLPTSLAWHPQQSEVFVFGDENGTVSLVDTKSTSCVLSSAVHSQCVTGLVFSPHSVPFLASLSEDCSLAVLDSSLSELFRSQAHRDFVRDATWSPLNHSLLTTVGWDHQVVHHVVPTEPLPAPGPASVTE

As to `Cc1cc(NC(=O)C(=O)N2C[C@H](C)CC[C@H]2c2cscn2)cnc1N` (single isomer, unassigned) [Compound 1028], the IC50 on PRMT5 [1] was > 500 nM; at PRMT5 [2] (read-out: No Cofactor/rel IC50) it was > 500 nM; in test [3] (setting [7]), > 1000 nM; in test [4] (setting [9]), > 10000 nM; at PRMT5 [5], > 500 nM; in test [6], > 1000 nM. For the same compound, the MTAP intact/deleted ratio result in test [3] (setting [8]) is listed as “C (an IC50 ratio of less than 3 fold)”.
For the compound `CCc1cc(NC(=O)C(=O)N2C[C@@H](C)CC[C@@H]2c2ccc3sc([C@@H]4C[C@H]5CN(C)C[C@H]54)nc3c2)cnc1N` [Compound 1147, N-(6-amino-5-ethylpyridin-3-yl)-2-((5S)-5-methyl-2-(2-(3-methyl-3-azabicyclo[3.2.0]heptan-6-yl)benzo[d]thiazol-5-yl)piperidin-1-yl)-2-oxoacetamide], the IC50 on PRMT5 [1] was < 50 nM; on PRMT5 [2] (read-out: No Cofactor/rel IC50), < 50 nM; in test [3] (setting [10]), < 100 nM; in test [4] (setting [9]) it was < 1000 nM; at PRMT5 [5], < 50 nM; in test [6] it was < 100 nM. Besides, the MTAP intact/deleted ratio entry in test [3] (setting [11]) is “A (an IC50 ratio greater than or equal to 10 fold)”.
Turning to `Cc1cc(NC(=O)C(=O)N2CCCCC2C2CCCCC2)cnc1N` (centres unmarked) [Compound 30, N-(6-amino-5-methyl-3-pyridyl)-2-[2-cyclohexyl-1-piperidyl]-2-oxo-acetamide], the IC50 at PRMT5 [1] was 50 to 500 nM; on PRMT5 [2] (setting [12]) it was 50 to 500 nM; in test [3] (setting [7]) it was 100 to 1000 nM; in test [4] (setting [9]), > 10000 nM; at PRMT5 [5] it was 50 to 500 nM; in test [6] it was > 1000 nM. In addition, the “MTAP intact/deleted ratio” value in test [3] (setting [8]) was “A (an IC50 ratio greater than or equal to 10 fold)”.
As to `COc1ncc(NC(=O)C(=O)N2C[C@H](C)CC[C@H]2c2cnc3[nH]ncc3c2)cc1C(N)=O` (single isomer, unassigned) [Compound 546], the IC50 at PRMT5 [1] was < 50 nM; on PRMT5 [2] (read-out: No Cofactor/rel IC50) it was 50 to 500 nM; in test [3] (setting [7]) it was 100 to 1000 nM; in test [4] (setting [13]), 1000 to 10000 nM; at PRMT5 [5], 50 to 500 nM; in test [6], > 1000 nM. Further, the MTAP intact/deleted ratio result in test [3] (setting [8]) is recorded as “A (an IC50 ratio greater than or equal to 10 fold)”.
For `Cc1cc(NC(=O)C(=O)N2C[C@H](C)CC[C@H]2c2ccc(-c3ccn[nH]3)cc2)cnc1N` (racemic) [Compound 526, rac N-(6-amino-5-methyl-3-pyridyl)-2-[(2S,5R)-5-methyl-2-[4-(1H-pyrazol-5-yl)phenyl]-1-piperidyl]-2-oxo-acetamide], the IC50 was 50 to 500 nM on PRMT5 [1]; 50 to 500 nM on PRMT5 [2] (read-out: No Cofactor/rel IC50); < 100 nM in test [3] (setting [10]); < 1000 nM in test [4] (setting [9]); 50 to 500 nM on PRMT5 [5]; 100 to 1000 nM in test [6]. Besides, the MTAP intact/deleted ratio result in test [3] (setting [8]) was “A (an IC50 ratio greater than or equal to 10 fold)”.
With `COc1ncc(NC(=O)C(=O)N2C[C@@H](C)CC[C@@H]2c2ccc3cnccc3c2)cc1C(N)=O` (single isomer, unassigned) [Compound 914], the IC50 on PRMT5 [1] was < 50 nM; at PRMT5 [2] (read-out: No Cofactor/rel IC50) it was < 50 nM; in test [3] (setting [7]) it was < 100 nM; in test [4] (setting [9]), < 1000 nM; at PRMT5 [5], 50 to 500 nM; in test [6] it was 100 to 1000 nM. The MTAP intact/deleted ratio result in test [3] (setting [8]) is reported as “A (an IC50 ratio greater than or equal to 10 fold)”.
For `Cc1cc(NC(=O)C(=O)N2C[C@H](C)CC[C@H]2C2CC3(CC(N)C3)C2)cnc1N` (mixture of isomers) [Compound 773, N-(6-amino-5-methylpyridin-3-yl)-2-(2-(6-aminospiro[3.3]heptan-2-yl)-5-methylpiperidin-1-yl)-2-oxoacetamide], the IC50 is 50 to 500 nM on PRMT5 [1]; 50 to 500 nM on PRMT5 [2] (read-out: No Cofactor/rel IC50); 100 to 1000 nM in test [3] (setting [10]); 1000 to 10000 nM in test [4] (HAP1, viability assay, HAP1 MTAP-deleted); 50 to 500 nM on PRMT5 [5]; > 1000 nM in test [6]. The MTAP intact/deleted ratio result in test [3] (setting [8]) is on record as “B (an IC50 ratio greater than or equal to 3 fold but lower than 10 fold)”.
With `C[C@@H]1CC[C@@H](c2ccnn2C)N(C(=O)C(=O)Nc2cncc(C(N)=O)c2)C1` (racemic) [Compound 81, 5-(2-(5-methyl-2-(1-methyl-1H-pyrazol-5-yl)piperidin-1-yl)-2-oxoacetamido)nicotinamide], the IC50 is 50 to 500 nM at PRMT5 [1]; > 500 nM at PRMT5 [2] (setting [12]); 100 to 1000 nM in test [3] (setting [7]); > 10000 nM in test [4] (setting [9]); > 500 nM at PRMT5 [5]; > 1000 nM in test [6]. In test [3] (setting [8]), the “MTAP intact/deleted ratio” value is recorded as “A (an IC50 ratio greater than or equal to 10 fold)”.
With `Cc1cc(NC(=O)C(=O)N2C[C@H](C)CC[C@H]2c2cccc(C3CCN(C)CC3)c2)cnc1N` (single isomer, unassigned) [Compound 1291], the IC50 at PRMT5 [1] was > 500 nM; on PRMT5 [2] (setting [12]) it was > 500 nM; in test [3] (setting [7]) it was 100 to 1000 nM; in test [4] (setting [14]) it was > 10000 nM; at PRMT5 [5], > 500 nM; in test [6] it was > 1000 nM.
As to `Cc1cc(NC(=O)C(=O)N2CCCCC2c2csc3ccccc23)cnc1N` (centres unmarked) [Compound 123, N-(6-Amino-5-methyl-3-pyridyl)-2-[2-(benzothiophen-3-yl)-1-piperidyl]-2-oxo-acetamide], the IC50 on PRMT5 [1] is < 50 nM; on PRMT5 [2] (setting [12]) it was 50 to 500 nM; in test [3] (setting [7]) it was 100 to 1000 nM; in test [4] (setting [9]) it was 1000 to 10000 nM; on PRMT5 [5] it was 50 to 500 nM; in test [6] it was > 1000 nM. Also, the “MTAP intact/deleted ratio” value in test [3] (setting [8]) is “A (an IC50 ratio greater than or equal to 10 fold)”.
On to `CC1(C)CCCC2CN(C(=O)C(=O)Nc3cncc(C(N)=O)c3)CCC21` (racemic) [Compound 141, 5-[2-(5,5-Dimethyl-decahydroisoquinolin-2-yl)-2-oxoacetamido]pyridine-3-carboxamide], for which the IC50 on PRMT5 [1] was < 50 nM; at PRMT5 [2] (setting [12]) it was 50 to 500 nM; in test [3] (setting [7]), 100 to 1000 nM; in test [4] (setting [9]) it was > 10000 nM; at PRMT5 [5] it was 50 to 500 nM; in test [6], > 1000 nM. Also, the “MTAP intact/deleted ratio” value in test [3] (setting [8]) is reported as “A (an IC50 ratio greater than or equal to 10 fold)”.
Take `C[C@H]1CN(C(=O)C(=O)Nc2cncc(C(N)=O)c2)[C@H](c2ccccc2)CC1(F)F` (single isomer, unassigned) [Compound 457]: the IC50 at PRMT5 [1] was < 50 nM; at PRMT5 [2] (read-out: No Cofactor/rel IC50), 50 to 500 nM; in test [3] (setting [10]), < 100 nM; in test [4] (setting [9]), < 1000 nM; on PRMT5 [5], 50 to 500 nM; in test [6], > 1000 nM. Also, the MTAP intact/deleted ratio result in test [3] (setting [8]) was “A (an IC50 ratio greater than or equal to 10 fold)”.
For the compound `CCc1cc(NC(=O)C(=O)N2C[C@@H](C)CC[C@@H]2c2ccc3sc(C4CN(C)C4)nc3c2)cnc1N` [Compound 1151, N-(6-amino-5-ethylpyridin-3-yl)-2-((2R,5S)-5-methyl-2-(2-(1-methylazetidin-3-yl)benzo[d]thiazol-5-yl)piperidin-1-yl)-2-oxoacetamide], the IC50 is < 50 nM on PRMT5 [1]; < 50 nM at PRMT5 [2] (read-out: No Cofactor/rel IC50); < 100 nM in test [3] (setting [10]); < 1000 nM in test [4] (setting [9]); < 50 nM on PRMT5 [5]; < 100 nM in test [6]. Moreover, the MTAP intact/deleted ratio entry in test [3] (setting [11]) is on record as “A (an IC50 ratio greater than or equal to 10 fold)”.
As for `Cc1cc(NC(=O)C(=O)N2C[C@H](C)CC[C@H]2c2ccc(-c3ccn[nH]3)cc2)cnc1N` (single isomer, unassigned) [Compound 675], the IC50 is 50 to 500 nM on PRMT5 [1]; > 500 nM at PRMT5 [2] (read-out: No Cofactor/rel IC50); > 1000 nM in test [3] (setting [7]); > 10000 nM in test [4] (setting [13]); > 500 nM at PRMT5 [5]; > 1000 nM in test [6]. Further, the MTAP intact/deleted ratio entry in test [3] (setting [8]) is “B (an IC50 ratio greater than or equal to 3 fold but lower than 10 fold)”.
As to `CCc1cc(NC(=O)C(=O)N2C[C@@H](C)CC[C@@H]2c2ccc3sc(C(F)(F)CN(C)C)nc3c2)cnc1N` (relative stereo) [Compound 1280], the IC50 on PRMT5 [1] is < 50 nM; on PRMT5 [2] (setting [12]), < 50 nM; in test [3] (setting [7]), < 100 nM; in test [4] (setting [14]) it was < 1000 nM; at PRMT5 [5], 50 to 500 nM; in test [6] it was 100 to 1000 nM. Also, the “MTAP intact/deleted ratio” value in test [3] (setting [8]) is reported as “A (an IC50 ratio greater than or equal to 10 fold)”.
